Assay results reported in ChEMBL document CHEMBL2401715, “Synthesis, antitumor and antibacterial activities of some novel tetrahydrobenzo[4,5]thieno[2,3-d]pyrimidine derivatives” (Eur J Med Chem, 2013).

How the values were obtained:
Pseudomonas aeruginosa [1] = assay: Antibacterial activity against Pseudomonas aeruginosa ATCC 10145 assessed as growth inhibition by broth microdilution method; assay type: functional
Staphylococcus aureus [2] = assay: Antibacterial activity against Staphylococcus aureus ATCC 12600 assessed as growth inhibition by broth microdilution method; assay type: functional
Pseudomonas aeruginosa [3] = assay: Antibacterial activity against Pseudomonas aeruginosa ATCC 10145 assessed as growth inhibition after 24 to 48 hrs by kirby-bauer disc diffusion method; assay type: functional; also: test concentration or dose not given here
Escherichia coli = assay: Antibacterial activity against Escherichia coli ATCC 11775 assessed as growth inhibition after 24 to 48 hrs by kirby-bauer disc diffusion method; assay type: functional, DSM 30083 = JCM 1649; also: test concentration or dose not given here
Staphylococcus aureus [4] = assay: Antibacterial activity against Staphylococcus aureus ATCC 12600 assessed as growth inhibition after 24 to 48 hrs by kirby-bauer disc diffusion method; assay type: functional; also: test concentration or dose not given here
Bacillus subtilis = assay: Antibacterial activity against Bacillus subtilis ATCC 6051 assessed as growth inhibition after 24 to 48 hrs by kirby-bauer disc diffusion method; assay type: functional; also: test concentration or dose not given here
HepG2 = assay: Cytotoxicity against human HepG2 cells assessed as cell survival after 48 hrs by SRB assay; assay type: functional, cell-based; conditions: HepG2, 48 h
MCF7 = assay: Cytotoxicity against human MCF7 cells assessed as cell survival after 48 hrs by SRB assay; assay type: functional, cell-based; conditions: MCF7, 48 h

**Q.** What does the source list for `COc1cc(-c2nc3sc4c(c3c(=O)n2-c2ccc3c(C)c5ccc(N)cc5nc3c2)CCCC4)cc(OC)c1OC`?
**A.** MIC (Pseudomonas aeruginosa [1]): 11 µg/mL; MIC (Staphylococcus aureus [2]): 8 µg/mL; diameter of the inhibition zone (DIZ) (Pseudomonas aeruginosa [3]): 25 mm; diameter of the inhibition zone (DIZ) (Escherichia coli): 22 mm; diameter of the inhibition zone (DIZ) (Staphylococcus aureus [4]): 26 mm; diameter of the inhibition zone (DIZ) (Bacillus subtilis): 23 mm; IC50 (HepG2): 5.5 µM; IC50 (MCF7): 0.86 µM

**Q.** Which MIC (Pseudomonas aeruginosa [1]) does the source give for `Cc1c2ccc(N)cc2nc2cc(-n3c(/C=C/c4ccccc4)nc4sc5c(c4c3=O)CCCC5)ccc12` here?
**A.** 18 µg/mL

**Q.** What about the MIC (Staphylococcus aureus [2]) of the same compound?
**A.** 13 µg/mL

**Q.** What about the “diameter of the inhibition zone (DIZ)” value (Pseudomonas aeruginosa [3]) of the same compound?
**A.** 21 mm

**Q.** And the “diameter of the inhibition zone (DIZ)” value (Escherichia coli)?
**A.** 21 mm

**Q.** What about the “diameter of the inhibition zone (DIZ)” value (Staphylococcus aureus [4]) of the same compound?
**A.** 24 mm

**Q.** And the “diameter of the inhibition zone (DIZ)” value (Bacillus subtilis)?
**A.** 20 mm

**Q.** And the IC50 (HepG2)?
**A.** 5.82 µM

**Q.** And the IC50 (MCF7)?
**A.** 0.19 µM
